This is an account of results in patent US8293771B2, “p38 MAP kinase inhibitors” (Respivert Ltd., priority 2008, dated 2012).

Structures are written as SMILES.

The test system of series [1] is Differentiated U937 cells. Briefly: MTT assay in differentiated U937 cells. It is filed as cell-based, human. To be noted: 4, 24 h (10 ug/ml). The procedure:
Differentiated U937 cells were pre-incubated with compound for 4 hrs in 5% FCS or 10% FCS for 24 hrs and 72 hrs. The supernatant was replaced with 200 ul of new media and 10 ul of MTT stock solution (5 mg/ml) added to each well. After 1 hr incubation, the media were removed, 200 ul of DMSO added to each well and the plates were shaken lightly for 1 hour prior to reading the absorbance at 550 nm.
The percentage loss of cell viability was calculated for each well relative to vehicle (0.5% DMSO)-treatment. Consequently an apparent increase in cell viability for drug treatment relative to vehicle is tabulated as a negative percentage.

Series [2] has as its system LPS-induced neutrophil accumulation. Kind of series: LPS-induced neutrophilia in the mouse. It is filed as in vivo.
The subject of series [3] is ovalbumin-mediated lung function changes (sGaw). Briefly: Ovalbumin challenge/parainfluenza infection model (in vivo model for steroid resistance). Details: species or system Dunkin-Hartley guinea-pigs. The procedure:
Male Dunkin-Hartley guinea-pigs (300-350 g, n=6/group) were sensitised with 100 μg ovalubumin (OVA)+100 mg Al2(OH)3 in 1 ml normal saline (i.p.) on days 2 and 6. Parainfluenza virus (PIV-3; 10^6 infectious units) or media without virus was nasally instilled on days 11 and 12. Animals were treated with nebulised fluticasone propionate at a dose of 1.5 mg per day. […] All animals were challenged for 1 h with nebulised OVA (10 μg/ml) on day 15 and repeated measurements of specific airways conductance (sGaw) were made over a 24 h period using whole body plethysmography. Measurements of sGaw after OVA challenge are plotted as % change from baseline.

The subject of series [4] is neutrophil and macrophage accumulation into airways of mice exposed to cigarette smoke. Briefly: Cigarette smoke model. To be noted: intra-nasal, twice daily for 3 days. It is filed as in vivo, A/J mice. The protocol:
A/J mice (males, 5 weeks old) were exposed to cigarette smoke (4% cigarette smoke, diluted with compressed air) for 30 min/day for 11 days using a Tobacco Smoke Inhalation Experiment System for small animals (Model SIS-CS; Sibata Scientific Technology, Tokyo, Japan). Test substances were given intra-nasally (35 μl of solution in 50% DMSO/PBS) and therapeutically twice daily for 3 days after the final cigarette smoke exposure. Twelve hours after the last dosing, animals were anesthetized, the trachea cannulated and bronchoalveolar lavage fluid (BALF) was collected. The numbers of alveolar macrophages and neutrophils were determined by FACS analysis (EPICS® ALTRA II, Beckman Coulter, Inc., Fullerton, Calif., USA) using anti-mouse MOMA2 antibody (macrophage) or anti-mouse 7/4 antibody (neutrophil).
The results are shown in FIG. 3 for activated alveolar macrophages and in FIG. 4 for neutrophils. Data for cell numbers are shown as the mean±SEM.

Series [5] deals with Differentiated U937 cells. Kind of series: LPS-induced TNFα release in differentiated U937 cells. Format: cell-based. To be noted: Homo sapiens, U-937; 0.1 ug/ml LPS, 4 hrs; compound pre-incubated 2 hrs. The protocol:
U937 cells, human monocytic cell line, were differentiated to macrophage-type cells by incubation with phorbol myristate acetate (PMA; 100 ng/ml) for 48 to 72 hours. Where appropriate, cells were pre-incubated with final concentrations of compound for 2 hrs. Cells were then stimulated with 0.1 ug/ml of LPS (from E. Coli: O111:B4, Sigma) for 4 hrs, and the supernatant collected for determination of TNFα concentration by sandwich ELISA (Duo-set, R&D systems). THP-1, human monocytic cell line, was also used for this assay. THP-1 cells were stimulated with 1 ug/ml of LPS (from E. Coli: O111:B4, Sigma) for 4 hrs, and the supernatant collected for determination of TNFα concentration.

Take `COCC(=O)Nc1cc(COc2ccc(NC(=O)Nc3cc(C(C)(C)C)nn3-c3ccc(C)cc3)c3ccccc23)ccn1` [Example 1, N-[4-({4-[3-(3-tert-Butyl-1-p-tolyl-1H-pyrazol-5-yl)ureido]naphthalen-1-yloxy}methyl)pyridin-2-yl]-2-methoxyacetamide]: in series [1], the “Differentiated U937 cells MTT assay” value is given as “Negative^2”. Besides, the “Inhibition of LPS-induced neutrophil accumulation” value in series [2] (mouse, intra tracheal pre-dosing, BALF 8 hours after LPS) is on record as “effective in inhibiting LPS-induced neutrophil accumulation”. The “Duration of effect on LPS-induced neutrophil accumulation” value in series [2] (mouse, pre-dose time before LPS) is “significant inhibition even at 12 or more hours of pre-dosing”. Moreover, the “Efficacy in ovalbumin challenge/parainfluenza model of steroid-resistant inflammation” value in series [3] (guinea pigs, PIV3 inoculated, 4.5 mg per day nebulised) is recorded as “effective”. Also, in series [4], the “Efficacy in cigarette smoke model of steroid-resistant inflammation” value is “effective”. For the same molecule, the IC50 in series [5] stood at 0.88 nM.

Molecule `CCC(=O)O[C@]1(C(=O)SCF)[C@H](C)C[C@H]2[C@@H]3C[C@H](F)C4=CC(=O)C=C[C@]4(C)[C@@]3(F)[C@@H](O)C[C@@]21C` [fluticasone propionate, reference compound] yielded an inhibition at 50 µg/mL in series [2] (Mus musculus, Neutrophil, 50 μg/ml (35 μl, bid)) above 80%. For the same molecule, in series [3] (sensitized animals treated with PIV3 medium (no virus), nebulised 1.5 mg per day), the “Ovalbumin-mediated lung function changes” value is recorded as “inhibited ovalbumin-mediated lung function changes”.
